CC(C)=CCOc1c2occc2cc2ccc(=O)oc12
solubility (mole fraction)
Details	288.2 K	293.2 K	298.2 K	303.2 K	308.2 K	313.2 K	318.2 K	323.2 K	328.2 K
in ethanol	0.00325	0.00454	0.0063	0.00865	0.0118	0.016	0.0215	0.0288	0.0382
in water	7.4e-07	1.03e-06	1.06e-06	1.03e-06	1.35e-06	1.46e-06	1.5e-06	1.53e-06	1.81e-06

Source: BigSolDB 2.1
